Experimental data as given in patent EP1171440B1, “SUBSTITUTED-3-CYANO-[1.7],[1.5], AND [1.8]-NAPHTHYRIDINE INHIBITORS OF TYROSINE KINASES” (Wyeth Holdings Corporation, priority 1999, dated 2000).
Converted amounts (≈) assume the structure as drawn. Read-outs that look alike come from different tables or passages of the source.

Legend:
[1] = molecular target: T1, EGF-R Kinase (recombinant enzyme) (Homo sapiens, UniProt P00533); assay: Inhibition of Epidermal Growth Factor Receptor Kinase (EGF-R) using recombinant enzyme, RR-SRC peptide phosphorylation with 33P-ATP; type: biochemical
T1 construct: containing the EGFR cDNA encoding amino acids 645 - 1186 preceded by Met-Ala-(His)6; made in house; host or cells: Sf9 insect cells infected with recombinant baculovirus vHcEGFR52
Protocol: Representative test compounds were evaluated for their ability to inhibit the phosphorylation of the tyrosine residue of a peptide substrate catalyzed by the enzyme epidermal growth factor receptor kinase. […] The enzyme used in this assay is the His-tagged cytoplasmic domain of EGFR. A recombinant baculovirus (vHcEGFR52) was constructed containing the EGFR cDNA encoding amino acids 645 - 1186 preceded by Met-Ala-(His)6 . Sf9 cells in 100 mm plates were infected at an moi of 10 pfu/cell and cells were harvested 48 h post infection. A cytoplasmic extract was prepared using 1% Triton X-100 and applied to Ni-NTA column. After washing the column with 20 mM imidazole, HcEGFR was eluted with 250 mM imidazole (in 50 mM Na2HPO4, pH 8.0, 300 mM NaCl). Fractions collected were dialyzed against 10 mM HEPES, pH 7.0, 50 mM NaCl, 10% glycerol, 1ug/mL antipain and leupeptin and 0.1 mM Pefabloc SC. The protein was frozen in dry ice/methanol and stored -70° C.
Test compounds were made into 10 mg/mL stock solutions in 100% dimethylsulfoxide (DMSO). Prior to experiment, stock solutions were diluted to 500 uM with 100% DMSO and then serially diluted to the desired concentration with HEPES buffer (30 mM HEPES pH 7.4).
For the enzyme reaction, 10 uL of each inhibitor (at various concentrations) were added to each well of a 96-well plate. To this was added 3 uL of enzyme (1:10 dilution in 10mM HEPES, pH 7.4 for final conc. of 1:120). This was allowed to sit for 10 min on ice and was followed by the addition of 5 ul peptide (80 uM final conc.), 10ul of 4X Buffer (Table A), 0.25 uL ^33P-ATP and 12 uL H2O. The reaction was allowed to run for 90 min at room temperature and was followed by spotting the entire volume on to precut P81 filter papers. The filter discs were washed 2X with 0.5% phosphoric acid and radioactivity was measured using a liquid scintillation counter. Table A
The IC50 is the concentration of test compound needed to reduce the total amount of phosphorylated substrate by 50%. The % inhibition of the test compound was determined for at least three different concentrations and the IC50 value was evaluated from the dose response curve. […] CPM(control) is in units of counts per minute and was a number expressing the amount of radiolabeled ATP (γ-^33P) incorporated into the RR-SRC peptide substrate by the enzyme after 90 minutes at room temperature in the absence of test compound as measured by liquid scintillation counting. The CPM values were corrected for the background counts produced by ATP in the absence of the enzymatic reaction. Where it was possible to determine an IC50 value, this is reported in TABLE 1 otherwise the % inhibition at 0.5 µM concentration of test compound is shown in TABLE 1.

A2780DDP = assay: Inhibition of Cancer Cell Growth as Measured by Cell Number (Sulforhodamine B); type: cell-based, Human; details: 48 hours exposure
Protocol: (§1) After 48 hours exposure to test compounds, cells were fixed with trichloroacetic acid, and stained with Sulforhodamine B. After washing with trichloroacetic acid, bound dye was solubilized in 10 mM Tris base and optical density was determined using a plate reader. Under conditions of the assay the optical density is proportional to the number of cells in the well. […] The test procedure is described in details by Philip Skehan et. al, J.Natl. Canc. […] The Her2Neu cell line is a 3T3 line that has bbeen transfected with Her2 receptor kinase.

A2780S = assay: as above; type: cell-based, Human; details: 48 hours exposure
Protocol: as §1

A431 = assay: as above; type: cell-based, Human; details: 48 hours exposure
Protocol: as §1

LOX = assay: as above; type: cell-based, Human; details: 48 hours exposure
Protocol: as §1

MDA435 = assay: as above; type: cell-based, Human; details: 48 hours exposure
Protocol: as §1

SKBR3 = assay: as above; type: cell-based, Human
Protocol: as §1

SW620 = assay: as above; type: cell-based, Human
Protocol: as §1

[2] = molecular target: Epithelial Cell Kinase (ECK) (Homo sapiens, UniProt P29317); assay: Inhibition of Epithelial Cell Kinase (ECK), nonradioactive peptide phosphorylation plate assay; type: biochemical; details: pH 7.2; multiple entries = tested multiple times
Protocol: In this standard pharmacological test procedure, a biotinylated peptide substrate is first immobilized on neutravidin-coated microtiter plates. The test drug, the Epithelial Cell Kinase (ECK), Mg^++, sodium vanadate (a protein tyrosine phosphatase inhibitor), and an appropriate buffer to maintain pH (7.2) are then added to the immobilized substrate-containing microtiter wells. ATP is then added to initiate phosphorylation. After incubation, the assay plates are washed with a suitable buffer leaving behind phosphorylated peptide which is exposed to horse radish peroxidase (HRP)-conjugated anti-phosphotyrosine monoclonal antibody. The antibody-treated plates are washed again and the HRP activity in individual wells is quantified as a reflection of degree of substrate phosphorylation. This nonradioactive format was used to identify inhibitors of ECK tyrosine kinase activity where the IC50 is the concentration of drug that inhibits substrate phosphorylation by 50%. Multiple entries for a given compound indication it was tested multiple times.

[3] = molecular target: Mitogen Activated Protein Kinase (Mek-Erk) (Homo sapiens, UniProt P28482+Q02750); assay: Mitogen Activated Protein Kinase (MAPK) coupled MEK 1 / ERK2 assay; type: biochemical; details: separate entries = evaluated more than one time
Protocol: To evaluate inhibitors of the MAP (mitogen activated protein) kinase a two component coupled standard pharmacological test procedure, which measures phosphorylation of a serine/threonine residue in an appropriate sequence in the substrate in the presence and absence of a putative inhibitor, was used. Recombinant human MEK 1 (MAPKK) was first used to activate recombinant human ERK2 (MAPK) and the activated MAPK (ERK) was incubated with substrate (MBP peptide or MYC peptide) in the presence of ATP, Mg^+2 and radiolabeled ^33P ATP. The phosphorylated peptide was captured on a P 81 phosphocellulose filter (paper filter or embedded in microtiter plate) washed and counted by scintillation methods.
The peptide substrates used in the assay are MBP, peptide substrate ([…]), or synthetic Myc substrate, ([…]•5 TFA. The recombinant enzymes used were prepared as GST fusion proteins of human ERK 2 and human MEK 1. Inhibitor samples were prepared as 10X stocks in 10% DMSO and an appropriate aliquot was used to deliver either 10 ug/ml for a single point screening dose or 100, 10, 1, and 0.1 uM final concentration for a dose response curve. Final DMSO concentrations were less than or equal to 1%.
The reaction was run as follows in 50 mM Tris kinase buffer, pH 7.4 in a reaction volume of 50 ul. The appropriate volume of kinase buffer and inhibitor sample was added to the tube. Appropriate dilution of enzyme was delivered to give 2-5 ug recombinant MAPK (Erk ) per tube. The inhibitor was incubated with MAPK (Erk) for 30 min at 0 deg. C. Recombinant Mek (MAPKK) ( 0.5-2.5 ug) or fully activated Mek (0.05-0.1 units) was added to activate the Erk and incubated for 30 min at 30° C. Then substrate and gamma ^33P ATP was were added to give a final concentration of 0.5- 1 mM MBPP or 250-500 uM Myc; 0.2-0.5 uCi gamma ^33P ATP/tube; 50 µM ATP final concentration. Samples were incubated at 30°C for 30 minutes and the reaction was stopped by adding 25 µl of ice cold 10 %TCA. After samples were chilled on ice for 30 min, 20 µl of sample was transferred onto P 81 phosphocellulose filter paper or appropriate MTP with embedded P 81 filter. Filter papers or MTP were washed 2 times with a large volume of 1% acetic acid, then 2 times with water. The filters or MTP were briefly air dried before addition of scintillant and samples were counted in the appropriate scintillation counter set up for reading ^33P isotope. Samples included a positive control (activated enzyme plus substrate); a no enzyme control; a no substrate control; samples with different concentrations of putative inhibitor; and samples with reference inhibitors (other active compounds or non-specific inhibitors such as staurosporine or K252 B).
The raw data was captured as cpm. Sample replicates were averaged and corrected for background count. Mean cpm data was tabulated by group and % inhibition by a test compound was calculated as (corrected cpm control- corrected. cpm sample/control) X 100 = % inhibition. If several concentrations of inhibitor were tested, IC50 values (the concentration which gives 50% inhibition) were determined graphically from the dose response curve for % inhibition or by an appropriate computer program. The results obtained for representative compounds of this invention are listed in TABLE 3 where there may be separate entries for the same compound; this is an indication that the compound was evaluated more than one time.

3T3 = assay: Inhibition of Cancer Cell Growth as Measured by Cell Number (Sulforhodamine B); type: cell-based; details: 48 hours exposure
Protocol: (§2) Human tumor cell lines were plated in 96-well plates (250 µl/well, 1-6 x 10^4 cells/ml) in RPMI 1640 medium, containing 5% FBS (Fetal Bovine Serum). […] After 48 hours exposure to test compounds, cells were fixed with trichloroacetic acid, and stained with Sulforhodamine B. After washing with trichloroacetic acid, bound dye was solubilized in 10 mM Tris base and optical density was determined using a plate reader. Under conditions of the assay the optical density is proportional to the number of cells in the well. IC50s (concentrations causing 50% inhibition of cell growth) were determined from the growth inhibition plots. The test procedure is described in details by Philip Skehan et. al, J.Natl. Canc. Inst., 82, 1107-1112 (1990). […] Information about some of the cell lines used in these test procedures is available from the American […]: Cell Lines and Hybridomas, 1994 Reference Guide, 8th Edition. The Her2Neu cell line is a 3T3 line that has bbeen transfected with Her2 receptor kinase.

MCF7 = assay: as above; type: cell-based; details: Homo sapiens, 48 hours exposure
Protocol: as §2

[4] = recombinant His-tagged cytoplasmic domain of EGFR, RR-SRC peptide, 90 min at room temperature, read-out: IC50
[5] = Homo sapiens, 48 h, read-out: IC50
[6] = Homo sapiens, A-431, 48 h, read-out: IC50
[7] = Homo sapiens, MDA435, 48 h, read-out: IC50
[8] = Homo sapiens, SK-BR-3, 48 hours exposure, read-out: IC50
[9] = Homo sapiens, SW-620, 48 hours exposure, read-out: IC50
[10] = 0.5 µM concentration of test compound, read-out: % Inhibition @ 0.5

T1 sequence (P00533 669-1210): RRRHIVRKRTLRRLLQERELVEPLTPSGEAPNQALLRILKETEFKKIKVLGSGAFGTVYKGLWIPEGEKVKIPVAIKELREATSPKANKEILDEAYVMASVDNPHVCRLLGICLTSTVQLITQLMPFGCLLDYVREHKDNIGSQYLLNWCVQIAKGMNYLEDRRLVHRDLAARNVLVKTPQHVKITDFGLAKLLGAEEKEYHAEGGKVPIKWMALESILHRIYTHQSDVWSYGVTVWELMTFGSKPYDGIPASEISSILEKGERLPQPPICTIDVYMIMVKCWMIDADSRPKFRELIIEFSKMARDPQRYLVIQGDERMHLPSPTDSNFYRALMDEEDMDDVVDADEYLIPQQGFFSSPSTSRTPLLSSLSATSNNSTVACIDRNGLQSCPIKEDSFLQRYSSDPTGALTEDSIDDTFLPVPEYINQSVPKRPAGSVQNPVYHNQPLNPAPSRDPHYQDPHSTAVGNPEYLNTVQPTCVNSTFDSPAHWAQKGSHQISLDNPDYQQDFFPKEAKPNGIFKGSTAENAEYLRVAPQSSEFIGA
Sequence of Mitogen Activated Protein Kinase (Mek-Erk) (P28482 2-360): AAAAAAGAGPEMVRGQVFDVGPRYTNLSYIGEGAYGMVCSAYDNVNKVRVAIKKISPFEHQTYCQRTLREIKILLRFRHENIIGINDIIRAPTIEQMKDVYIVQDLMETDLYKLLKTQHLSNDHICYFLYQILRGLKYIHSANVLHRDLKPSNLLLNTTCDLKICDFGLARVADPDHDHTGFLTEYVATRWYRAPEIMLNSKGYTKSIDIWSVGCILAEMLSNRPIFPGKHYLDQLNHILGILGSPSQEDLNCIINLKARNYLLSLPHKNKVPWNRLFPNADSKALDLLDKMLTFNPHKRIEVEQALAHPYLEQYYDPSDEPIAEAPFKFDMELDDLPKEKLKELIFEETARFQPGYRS
Sequence of Mitogen Activated Protein Kinase (Mek-Erk) (Q02750 whole entry): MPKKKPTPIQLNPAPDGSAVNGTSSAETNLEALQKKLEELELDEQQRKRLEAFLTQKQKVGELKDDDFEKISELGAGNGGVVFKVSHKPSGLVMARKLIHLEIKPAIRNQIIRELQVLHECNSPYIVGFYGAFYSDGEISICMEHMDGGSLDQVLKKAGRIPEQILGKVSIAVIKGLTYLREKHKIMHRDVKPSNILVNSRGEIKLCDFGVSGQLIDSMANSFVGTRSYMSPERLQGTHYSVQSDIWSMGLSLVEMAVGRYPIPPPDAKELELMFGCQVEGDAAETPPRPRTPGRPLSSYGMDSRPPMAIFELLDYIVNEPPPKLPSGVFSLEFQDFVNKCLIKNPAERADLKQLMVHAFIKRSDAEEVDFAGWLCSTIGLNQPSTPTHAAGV
Sequence of Epithelial Cell Kinase (ECK) (P29317 24-976, species assumed): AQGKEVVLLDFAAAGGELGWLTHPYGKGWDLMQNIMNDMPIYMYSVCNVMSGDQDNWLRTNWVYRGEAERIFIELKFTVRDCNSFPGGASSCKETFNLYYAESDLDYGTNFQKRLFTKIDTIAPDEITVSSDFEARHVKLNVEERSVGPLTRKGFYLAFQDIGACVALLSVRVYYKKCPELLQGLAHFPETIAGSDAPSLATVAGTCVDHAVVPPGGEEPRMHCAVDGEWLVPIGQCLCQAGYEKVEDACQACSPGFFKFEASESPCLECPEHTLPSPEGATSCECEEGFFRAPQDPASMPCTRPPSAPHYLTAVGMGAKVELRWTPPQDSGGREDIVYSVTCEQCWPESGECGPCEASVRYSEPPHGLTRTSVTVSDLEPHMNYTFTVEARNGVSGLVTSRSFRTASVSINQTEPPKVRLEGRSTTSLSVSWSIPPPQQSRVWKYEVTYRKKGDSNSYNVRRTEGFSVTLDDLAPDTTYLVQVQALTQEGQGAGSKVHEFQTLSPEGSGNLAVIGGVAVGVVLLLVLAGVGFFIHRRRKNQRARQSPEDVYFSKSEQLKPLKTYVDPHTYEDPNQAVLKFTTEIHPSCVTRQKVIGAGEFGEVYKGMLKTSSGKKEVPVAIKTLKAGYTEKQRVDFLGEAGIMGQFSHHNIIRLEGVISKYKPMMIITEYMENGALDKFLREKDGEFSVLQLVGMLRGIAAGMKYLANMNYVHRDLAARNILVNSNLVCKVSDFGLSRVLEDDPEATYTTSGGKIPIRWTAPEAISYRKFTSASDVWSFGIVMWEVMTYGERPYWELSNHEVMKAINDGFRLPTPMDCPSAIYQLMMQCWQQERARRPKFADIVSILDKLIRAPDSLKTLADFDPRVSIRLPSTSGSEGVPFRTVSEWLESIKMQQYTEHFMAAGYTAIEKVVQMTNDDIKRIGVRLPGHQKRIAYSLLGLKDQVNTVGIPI

IC50 (A431; [6]) [µg/mL] | IC50 (SKBR3; [8]) [µg/mL] | IC50 (SW620; [9]) [µg/mL] | Compound | IC50 [1, 4] [nM] | IC50 [2] [nM] | IC50 [3] [nM] | other results
0.5 (≈ 1.1 µM) | 0.4 (≈ 0.882 µM) | 41 (≈ 90.4 µM) | N#Cc1cnc2cnc(NCCN3CCOCC3)cc2c1Nc1cccc(Br)c1 [Example 63, 4-(3-Bromo-phenylamino)-6-(2-morpholino-4-yl-ethylamino)-[1.7]naphthyridine-3-carbonitrile] | 1000 |  |  | IC50 (A2780DDP; [5]): 0.8 µg/mL (≈ 1.76 µM); IC50 (A2780S; [5]): 0.5 µg/mL (≈ 1.1 µM); IC50 (LOX; Homo sapiens, read-out: IC50): 57 µg/mL (≈ 126 µM); IC50 (MDA435; [7]): 49 µg/mL (≈ 108 µM)
 |  |  | 1-[4-(3-Bromo-phenylamino)-3-cyano-[1.7]naphthyridin-6-yl]-4-dimethylamino- pyridinium fluoride [Example 65] |  |  |  | IC50 (A2780DDP): 52 µg/mL; IC50 (A2780S): 31 µg/mL; IC50 (A431): 59 µg/mL; IC50 (LOX): 56 µg/mL; IC50 (MDA435): 47 µg/mL; IC50 (SKBR3; 48 hours exposure): 41 µg/mL; IC50 (SW620; 48 hours exposure): 42 µg/mL
 |  |  | Cc1ccc(Nc2c(C#N)cnc3ccc(OCCCN4CCOCC4)nc23)cc1O [Example 43, 4-(3-Hydroxy-4-methyl-phenylamino)-6-(3-morpholin-4-yl-propoxy)-[1.5]naphthyridine-3-carbonitrile] | 1000 | > 2300 | > 100000 | inhibition at 0.5 µM [1, 10]: 37.1%
0.088 (≈ 0.195 µM) | 0.0357 (≈ 0.079 µM) | 0.356 (≈ 0.789 µM) | CN(C)CC=CC(=O)Nc1cc2c(Nc3cccc(Br)c3)c(C#N)cnc2cn1 [Example 62, 4-Dimethylamino-but-2-enoic acid, [4-(3-bromo-phenylamino)-3-cyano-[1.7]naphthyridin-6-yl]-amide] |  |  |  | IC50 [1]: 5 nM; inhibition at 0.5 µM ([1]; read-out: % Inhibition @ 0.5 (µM)): 97.4%; IC50 (MDA435; [7]): 0.464 µg/mL (≈ 1.03 µM); IC50 (3T3): 0.2716 µg/mL (≈ 0.602 µM); IC50 (3T3; Mus musculus, NIH3T3, 48 h, read-out: IC50): 0.373 µg/mL (≈ 0.826 µM)
 |  |  | N#Cc1cnc2cnc(F)cc2c1Nc1ccc(F)c(Cl)c1 [Example 69, 4-(3-Chloro-4-fluoro-phenylamino)-6-fluoro-[1.7]naphthyridine-3-carbonitrile] |  | > 3100 |  | 
0.31 (≈ 0.875 µM) | 1.88 (≈ 5.3 µM) | 4.62 (≈ 13 µM) | CNc1cc2c(Nc3cccc(Br)c3)c(C#N)cnc2cn1 [Example 64, 4-(3-Bromo-phenylamino)-6-methylamino-[1.7]naphthyridine-3-carbonitrile] | 6 |  |  | IC50 (A431): 0.209 µg/mL (≈ 0.59 µM); IC50 (LOX; Homo sapiens, read-out: IC50): 3.6 µg/mL (≈ 10.2 µM); IC50 (MCF7): 3.87 µg/mL (≈ 10.9 µM)
 |  |  | N#Cc1cnc2ccc(OCCCN3CCOCC3)nc2c1Nc1cccc(Br)c1 [Example 44, 4-(3-Bromo-phenylamino)-6-(3-morpholin-4-yl-propoxy)-[1.5]naphthyridine-3-carbonitrile] | 1000 | > 2100 | > 100000 | inhibition at 0.5 µM [1, 10]: 25.4%
 |  |  | CC#CC(=O)Nc1cnc2ncc(C#N)c(Nc3cccc(Br)c3)c2c1 [Example 24, But-2-ynoic acid [5-(3-bromo-phenylamino)-6-cyano-[1.8]-naphthyridin-3-yl]-amide] | 100 | 30 | > 100000 | 
